Results published in PubChem BioAssay (NCI).
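Cells were grown in 96-well plates and exposed to each compound for 48 hours at five concentrations; endpoints were interpolated linearly between bracketing concentrations, or set to the highest concentration if not reached. At the TGI there is no net growth.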

Legend:
Test in all cases: NCI tumour cell line growth inhibition, 48 h
786-0 renal = system: 786-0 renal
A498 renal = system: A498 renal
A549 NSCLC = system: A549 NSCLC
ACHN renal = system: ACHN renal
BT-549 breast = system: BT-549 breast
CCRF-CEM leukemia = system: CCRF-CEM leukemia
COLO 205 colon = system: COLO 205 colon
DU-145 prostate = system: DU-145 prostate
EKVX NSCLC = system: EKVX NSCLC
HCC-2998 colon = system: HCC-2998 colon
HCT-116 colon = system: HCT-116 colon
HCT-15 colon = system: HCT-15 colon
HL-60(TB) leukemia = system: HL-60(TB) leukemia
HOP-62 NSCLC = system: HOP-62 NSCLC
HOP-92 NSCLC = system: HOP-92 NSCLC
HS 578T breast = system: HS 578T breast
HT29 colon = system: HT29 colon
IGROV1 ovarian = system: IGROV1 ovarian
K-562 leukemia = system: K-562 leukemia
KM12 colon = system: KM12 colon
M14 melanoma = system: M14 melanoma
MALME-3M melanoma = system: MALME-3M melanoma
MCF7 breast = system: MCF7 breast
MDA-MB-231 breast = system: MDA-MB-231 breast
MDA-MB-435 = system: MDA-MB-435
MDA-N = system: MDA-N
MOLT-4 leukemia = system: MOLT-4 leukemia
NCI-H226 lung = system: NCI-H226 lung
NCI-H23 lung = system: NCI-H23 lung
NCI-H460 lung = system: NCI-H460 lung
NCI-H522 lung = system: NCI-H522 lung
NCI/ADR-RES ovarian = system: NCI/ADR-RES ovarian
OVCAR-3 ovarian = system: OVCAR-3 ovarian
OVCAR-4 ovarian = system: OVCAR-4 ovarian
OVCAR-5 ovarian = system: OVCAR-5 ovarian
OVCAR-8 ovarian = system: OVCAR-8 ovarian
PC-3 prostate = system: PC-3 prostate
RPMI-8226 leukemia = system: RPMI-8226 leukemia
RXF 393 renal = system: RXF 393 renal
SF-268 CNS = system: SF-268 CNS
SF-295 CNS = system: SF-295 CNS
SF-539 CNS = system: SF-539 CNS
SK-MEL-2 melanoma = system: SK-MEL-2 melanoma
SK-MEL-28 melanoma = system: SK-MEL-28 melanoma
SK-MEL-5 melanoma = system: SK-MEL-5 melanoma
SK-OV-3 ovarian = system: SK-OV-3 ovarian
SN12C renal = system: SN12C renal
SNB-19 CNS = system: SNB-19 CNS
SNB-75 CNS = system: SNB-75 CNS
SW-620 colon = system: SW-620 colon
T-47D breast = system: T-47D breast
TK-10 renal = system: TK-10 renal
U251 CNS = system: U251 CNS
UACC-257 melanoma = system: UACC-257 melanoma
UACC-62 melanoma = system: UACC-62 melanoma
UO-31 renal = system: UO-31 renal
CAKI-1 renal = system: CAKI-1 renal
SR leukemia = system: SR leukemia

Molecule `CC(C)(Cl)C(Br)CCC(=CCBr)CBr` (mixture of isomers) has a TGI (786-0 renal) of 3.17 µM, a TGI (A498 renal) of 18.3 µM and a TGI (A549 NSCLC) of 29.9 µM. For the same molecule, the TGI (ACHN renal) was 15.6 µM, the TGI (BT-549 breast) was 7.5 µM and the TGI (CCRF-CEM leukemia) was 3.49 µM. The TGI (COLO 205 colon) was 4.91 µM, the TGI (DU-145 prostate) was 21.3 µM and the TGI (EKVX NSCLC) was 62 µM. The TGI (HCC-2998 colon) was 14 µM, the TGI (HCT-116 colon) was 3.66 µM and the TGI (HCT-15 colon) was 3.75 µM. The TGI (HL-60(TB) leukemia) was 2.42 µM, the TGI (HOP-62 NSCLC) was 11.7 µM and the TGI (HOP-92 NSCLC) was 5.1 µM. For the same molecule, the TGI (HS 578T breast) was 19.3 µM, the TGI (HT29 colon) was 4.65 µM and the TGI (IGROV1 ovarian) was 5.56 µM. For the same molecule, the TGI (K-562 leukemia) was 4.18 µM, the TGI (KM12 colon) was 5.93 µM and the TGI (M14 melanoma) was 4.25 µM. For the same molecule, the TGI (MALME-3M melanoma) was 4.74 µM, the TGI (MCF7 breast) was 8.42 µM and the TGI (MDA-MB-231 breast) was 3.51 µM. For the same molecule, the TGI (MDA-MB-435) was 3.56 µM, the TGI (MDA-N) was 6.13 µM and the TGI (MOLT-4 leukemia) was 2.88 µM. The TGI (NCI-H226 lung) was 51.9 µM, the TGI (NCI-H23 lung) was 9.07 µM and the TGI (NCI-H460 lung) was 13.6 µM. The TGI (NCI-H522 lung) was 3.19 µM, the TGI (NCI/ADR-RES ovarian) was > 24.5 µM and the TGI (OVCAR-3 ovarian) was 6.27 µM. For the same molecule, the TGI (OVCAR-4 ovarian) was 5.06 µM, the TGI (OVCAR-5 ovarian) was 26.4 µM and the TGI (OVCAR-8 ovarian) was 9.25 µM. It also gave a TGI (PC-3 prostate) of 18 µM, a TGI (RPMI-8226 leukemia) of 3.22 µM and a TGI (RXF 393 renal) of 15.7 µM. It also gave a TGI (SF-268 CNS) of 4.99 µM, a TGI (SF-295 CNS) of 11 µM and a TGI (SF-539 CNS) of 4.93 µM. The TGI (SK-MEL-2 melanoma) was 22.9 µM, the TGI (SK-MEL-28 melanoma) was 10.8 µM and the TGI (SK-MEL-5 melanoma) was 7.77 µM. The TGI (SK-OV-3 ovarian) was 29 µM, the TGI (SN12C renal) was 8.39 µM and the TGI (SNB-19 CNS) was 13.1 µM. The TGI (SNB-75 CNS) was 7.31 µM, the TGI (SW-620 colon) was 5.53 µM and the TGI (T-47D breast) was 17.3 µM. It also gave a TGI (TK-10 renal) of 12.5 µM, a TGI (U251 CNS) of 4.09 µM and a TGI (UACC-257 melanoma) of 14.2 µM. For the same molecule, the TGI (UACC-62 melanoma) was 11.5 µM and the TGI (UO-31 renal) was 3.42 µM.
`COc1ccccc1NC(=S)NNC(=O)c1cc(-c2ccccc2)nc2ccccc12` gave a TGI (786-0 renal) of 32.8 µM, a TGI (A549 NSCLC) of 35 µM and a TGI (ACHN renal) of 65.8 µM. For the same molecule, the TGI (BT-549 breast) was 63.8 µM, the TGI (CAKI-1 renal) was 39.5 µM and the TGI (CCRF-CEM leukemia) was 6.95 µM. The TGI (COLO 205 colon) was 45.8 µM, the TGI (DU-145 prostate) was 32 µM and the TGI (HCC-2998 colon) was 28.6 µM. It also gave a TGI (HCT-116 colon) of 25.6 µM, a TGI (HCT-15 colon) of 20.2 µM and a TGI (HOP-62 NSCLC) of 32 µM. The TGI (HOP-92 NSCLC) was 36.5 µM, the TGI (HS 578T breast) was 50.2 µM and the TGI (HT29 colon) was 71.3 µM. For the same molecule, the TGI (IGROV1 ovarian) was 68.5 µM, the TGI (K-562 leukemia) was > 100 µM and the TGI (KM12 colon) was 46.5 µM. It also gave a TGI (M14 melanoma) of 26.1 µM, a TGI (MALME-3M melanoma) of 28.9 µM and a TGI (MDA-MB-231 breast) of 63.7 µM. It also gave a TGI (MDA-MB-435) of 18.5 µM, a TGI (MDA-N) of 7.78 µM and a TGI (MOLT-4 leukemia) of 26.5 µM. The TGI (NCI-H226 lung) was 51.9 µM, the TGI (NCI-H23 lung) was 32.3 µM and the TGI (NCI-H460 lung) was 98 µM. It also gave a TGI (NCI-H522 lung) of 50 µM, a TGI (NCI/ADR-RES ovarian) of 63.5 µM and a TGI (OVCAR-3 ovarian) of 18.2 µM. The TGI (OVCAR-4 ovarian) was 85.4 µM, the TGI (OVCAR-5 ovarian) was 47 µM and the TGI (OVCAR-8 ovarian) was 49 µM. The TGI (PC-3 prostate) was 49.3 µM, the TGI (RPMI-8226 leukemia) was 53.6 µM and the TGI (RXF 393 renal) was 28.8 µM. It also gave a TGI (SF-268 CNS) of 74.8 µM, a TGI (SF-295 CNS) of 18 µM and a TGI (SF-539 CNS) of 28.1 µM. It also gave a TGI (SK-MEL-2 melanoma) of 31.2 µM, a TGI (SK-MEL-28 melanoma) of 62 µM and a TGI (SK-MEL-5 melanoma) of 19.8 µM. The TGI (SK-OV-3 ovarian) was 42.1 µM, the TGI (SN12C renal) was 41.5 µM and the TGI (SNB-19 CNS) was > 100 µM. For the same molecule, the TGI (SNB-75 CNS) was 85 µM, the TGI (SR leukemia) was 4.53 µM and the TGI (SW-620 colon) was 84.9 µM. For the same molecule, the TGI (T-47D breast) was 63 µM, the TGI (TK-10 renal) was > 100 µM and the TGI (U251 CNS) was 43.7 µM. For the same molecule, the TGI (UACC-257 melanoma) was 57.8 µM, the TGI (UACC-62 melanoma) was 23.2 µM and the TGI (UO-31 renal) was 24.6 µM.
